The values below come from ChEMBL document CHEMBL1126082, “Nucleosides and nucleotides. 107. 2-(cycloalkylalkynyl)adenosines: adenosine A2 receptor agonists with potent antihypertensive effects” (J Med Chem, 1992).

Each structure is given as a SMILES string.

For one assay, the target named is T1, Adenosine receptor A1 (Rattus norvegicus, UniProt P25099).
T1 sequence (P25099 whole entry): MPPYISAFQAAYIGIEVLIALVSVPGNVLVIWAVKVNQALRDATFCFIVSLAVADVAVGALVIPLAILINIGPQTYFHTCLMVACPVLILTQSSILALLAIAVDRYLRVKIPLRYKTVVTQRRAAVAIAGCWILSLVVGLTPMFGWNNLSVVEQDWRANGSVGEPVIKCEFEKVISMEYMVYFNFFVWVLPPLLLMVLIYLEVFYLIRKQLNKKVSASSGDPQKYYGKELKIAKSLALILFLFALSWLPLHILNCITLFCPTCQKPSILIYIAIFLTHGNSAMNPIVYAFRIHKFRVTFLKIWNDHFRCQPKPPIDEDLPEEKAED
In words: Inhibition of [3H]CHA binding to adenosine A1 receptor from rat brain membranes. The assay is classed as cell membranes, Membrane.

The test system of assay [1] is Rattus norvegicus. In words: Dose producing 10% decrease in heart rate of anaesthetized spontaneous hypertensive male rat(SHR). The assay is classed as functional.
The test system of assay [2] is Rattus norvegicus. In words: Dose producing 30% decrease in blood pressure of anesthetized spontaneous hypertensive male rat(SHR). The assay is classed as functional.
Another assay has as its target Adenosine A2 receptor (Rattus norvegicus, UniProt P29276+P30543).

Description for Adenosine A2 receptor: Inhibition of [3H]NECA binding to adenosine A2 receptor from rat striatal membranes

As for `Nc1nc(C#CC(O)c2ccccc2)nc2c1ncn2[C@@H]1O[C@H](CO)[C@@H](O)[C@H]1O` (stereo not given in full), the Ki at Adenosine receptor A1 was 3.4 nM; on Adenosine A2 receptor it was 1.9 nM. For the same molecule, the ED10 with Rattus norvegicus [1] is 1.3 µg/kg. The molecule also had an ED30 in the assay with Rattus norvegicus [2] of 0.05 µg/kg.

With `COc1cc(OC)cc(C(CNc2ncnc3c2ncn3[C@@H]2O[C@H](CO)[C@@H](O)[C@H]2O)c2ccccc2C)c1` (stereo not given in full), the Ki at Adenosine receptor A1 is 108 nM; at Adenosine A2 receptor, 6.9 nM. The ED10 in the assay on Rattus norvegicus [1] is greater than 100 µg/kg.

Turning to `CCCCCCC#Cc1nc(N)c2ncn([C@@H]3O[C@H](CO)[C@@H](O)[C@H]3O)c2n1`, the Ki was 133 nM at Adenosine receptor A1 and 7.9 nM on Adenosine A2 receptor. The ED10 in the assay with Rattus norvegicus [1] is greater than 100 µg/kg. The molecule also had an ED30 in the assay on Rattus norvegicus [2] of 0.2 µg/kg.

Consider `Nc1nc(C#CC2(O)CCCCC2)nc2c1ncn2[C@@H]1O[C@H](CO)[C@@H](O)[C@H]1O`, for which the ED10 with Rattus norvegicus [1] worked out at 3.5 µg/kg. In addition, the ED30 in the assay on Rattus norvegicus [2] worked out at 0.02 µg/kg.

Molecule `Nc1nc(C#CC2(O)CCCCCCC2)nc2c1ncn2[C@@H]1O[C@H](CO)[C@@H](O)[C@H]1O` yielded an ED10 with Rattus norvegicus [1] of 13 µg/kg. Further, the ED30 with Rattus norvegicus [2] worked out at 0.01 µg/kg.

In the case of `Nc1nc(C#CCC2CCCC2)nc2c1ncn2[C@@H]1O[C@H](CO)[C@@H](O)[C@H]1O`, in the assay with Rattus norvegicus [1], the ED10 was greater than 100 µg/kg. Also, the ED30 in the assay with Rattus norvegicus [2] turned out to be 0.05 µg/kg. At Adenosine A2 receptor, this molecule returned a Ki of 2.3 nM.

As to `Nc1nc(C#CCCc2ccccc2)nc2c1ncn2[C@@H]1O[C@H](CO)[C@@H](O)[C@H]1O`, the inhibition constant Ki turned out to be 400 nM on Adenosine receptor A1 and 37 nM on Adenosine A2 receptor. This molecule also gave an ED10 with Rattus norvegicus [1] greater than 100 µg/kg. For the same molecule, the ED30 in the assay with Rattus norvegicus [2] came out at 1.21 µg/kg.

Regarding `Nc1nc(C#CC2(O)CCCCCC2)nc2c1ncn2[C@@H]1O[C@H](CO)[C@@H](O)[C@H]1O`, the Ki at Adenosine receptor A1 came out at 27 nM; on Adenosine A2 receptor it was 1.1 nM. The molecule further came in with an ED10 in the assay with Rattus norvegicus [1] of 5.6 µg/kg. In the assay with Rattus norvegicus [2], this molecule yielded an ED30 of 0.02 µg/kg.

Consider `Nc1nc(C#CCO)nc2c1ncn2[C@@H]1O[C@H](CO)[C@@H](O)[C@H]1O`, for which the Ki on Adenosine receptor A1 is 8.3 nM; on Adenosine A2 receptor, 20 nM. Moreover, the ED10 in the assay with Rattus norvegicus [1] amounted to 0.74 µg/kg. Further, in the assay with Rattus norvegicus [2], the ED30 stood at 0.36 µg/kg.

Turning to `Nc1nc(C#CC2CCCC2)nc2c1ncn2[C@@H]1O[C@H](CO)[C@@H](O)[C@H]1O`, the Ki at Adenosine receptor A1 was found to be 88 nM; on Adenosine A2 receptor, 12 nM. This molecule showed an ED10 in the assay with Rattus norvegicus [1] greater than 100 µg/kg. The molecule further came in with an ED30 with Rattus norvegicus [2] of 0.29 µg/kg.

For `CC(C)(O)C#Cc1nc(N)c2ncn([C@@H]3O[C@H](CO)[C@@H](O)[C@H]3O)c2n1`, the Ki at Adenosine receptor A1 came to 32 nM; at Adenosine A2 receptor, 19 nM. The molecule further showed an ED10 with Rattus norvegicus [1] of 1.4 µg/kg. Besides, in the assay with Rattus norvegicus [2], the ED30 came out at 0.14 µg/kg.

As for `CC(O)C#Cc1nc(N)c2ncn([C@@H]3O[C@H](CO)[C@@H](O)[C@H]3O)c2n1` (stereo not given in full), the results for the Ki on Adenosine receptor A1 and on Adenosine A2 receptor were 15 nM and 18 nM, respectively. The molecule further came in with an ED10 in the assay with Rattus norvegicus [1] of 0.8 µg/kg. In the assay on Rattus norvegicus [2], this molecule displayed an ED30 of 0.15 µg/kg.

In the assay with Rattus norvegicus [1], `CCCCC#Cc1nc(N)c2ncn([C@@H]3O[C@H](CO)[C@@H](O)[C@H]3O)c2n1` had an ED10 of 67 µg/kg. The ED30 in the assay on Rattus norvegicus [2] is 0.11 µg/kg.

Take `Nc1nc(C#Cc2ccccc2)nc2c1ncn2[C@@H]1O[C@H](CO)[C@@H](O)[C@H]1O`: the inhibition constant (Ki) came out at 701 nM on Adenosine receptor A1 and 109 nM at Adenosine A2 receptor. Also, in the assay with Rattus norvegicus [1], the ED10 is greater than 100 µg/kg. In the assay with Rattus norvegicus [2], this molecule yielded an ED30 of 10.1 µg/kg.

Turning to `Nc1nc(C#CCCC2CCCCC2)nc2c1ncn2C1O[C@H](CO)[C@@H](O)[C@H]1O` (stereo not given in full), the figures for the inhibition constant (Ki) on Adenosine receptor A1 and at Adenosine A2 receptor were 313 nM and 26 nM, respectively. Besides, in the assay on Rattus norvegicus [1], the ED10 was greater than 100 µg/kg. In the assay on Rattus norvegicus [2], this molecule showed an ED30 of 0.48 µg/kg.

For the molecule `CCCCCC(O)C#Cc1nc(N)c2ncn(C3O[C@H](CO)[C@@H](O)[C@H]3O)c2n1` (stereo not given in full), the Ki at Adenosine receptor A1 worked out at 11 nM; on Adenosine A2 receptor, 2 nM. In the assay on Rattus norvegicus [1], this molecule gave an ED10 of 0.45 µg/kg. The molecule further displayed an ED30 with Rattus norvegicus [2] of 0.06 µg/kg.

Turning to `CCCC(O)C#Cc1nc(N)c2ncn(C3O[C@H](CO)[C@@H](O)[C@H]3O)c2n1` (stereo not given in full), the values for the Ki on Adenosine receptor A1 and at Adenosine A2 receptor were 16 nM and 1.8 nM, respectively. Further, the ED10 with Rattus norvegicus [1] was 0.83 µg/kg. Further, in the assay with Rattus norvegicus [2], the ED30 came out at 0.04 µg/kg.

For the molecule `Nc1nc(C#CC2(O)CCCC2)nc2c1ncn2C1O[C@H](CO)[C@@H](O)[C@H]1O` (stereo not given in full), the inhibitory constant (Ki) turned out to be 11 nM on Adenosine receptor A1 and 3.3 nM at Adenosine A2 receptor. Besides, the ED10 in the assay on Rattus norvegicus [1] worked out at 1.6 µg/kg. This molecule also yielded an ED30 with Rattus norvegicus [2] of 0.07 µg/kg.

With `Nc1nc(C#CC2CCCCC2)nc2c1ncn2C1O[C@H](CO)[C@@H](O)[C@H]1O` (stereo not given in full), the results for the Ki at Adenosine receptor A1 and on Adenosine A2 receptor were 138 nM and 10 nM, respectively. Moreover, the ED10 in the assay on Rattus norvegicus [1] was greater than 100 µg/kg. In the assay with Rattus norvegicus [2], the ED30 was found to be 0.36 µg/kg.

In the case of `Nc1nc(C#CCCC2CCCC2)nc2c1ncn2C1O[C@H](CO)[C@@H](O)[C@H]1O` (stereo not given in full), the Ki at Adenosine receptor A1 was found to be 136 nM; on Adenosine A2 receptor, 3.4 nM. This molecule also displayed an ED10 in the assay with Rattus norvegicus [1] greater than 100 µg/kg. In the assay on Rattus norvegicus [2], this molecule registered an ED30 of 0.16 µg/kg.

For the molecule `Nc1nc(C#CCC2CCCCC2)nc2c1ncn2C1O[C@H](CO)[C@@H](O)[C@H]1O` (stereo not given in full), in the assay on Rattus norvegicus [1], the ED10 was greater than 100 µg/kg. Moreover, the ED30 in the assay with Rattus norvegicus [2] was determined as 0.15 µg/kg.

On to `Nc1nc(C#CCCCC2CCCCC2)nc2c1ncn2C1O[C@H](CO)[C@@H](O)[C@H]1O` (stereo not given in full), for which the Ki on Adenosine receptor A1 was greater than 229 nM; on Adenosine A2 receptor it was 46 nM. Also, the ED10 with Rattus norvegicus [1] was greater than 100 µg/kg. In the assay with Rattus norvegicus [2], this molecule registered an ED30 of 1.64 µg/kg.

`CCNC(=O)[C@H]1O[C@@H](n2cnc3c(N)nc(NCCc4ccc(CCC(=O)O)cc4)nc32)[C@H](O)[C@@H]1O` [CGS-21680]: the ED10 in the assay on Rattus norvegicus [1] is greater than 100 µg/kg. The ED30 in the assay with Rattus norvegicus [2] is 0.97 µg/kg.
